Data: publication PMC8667902 (Journal of Enzyme Inhibition and Medicinal Chemistry, 2021)
Several values for one entry are separate records, joined by “and”; a condition that tells them apart may be missing. Identical values can stand only once.

What was measured:
ratBuChE = ratBuChE (Rattus norvegicus, UniProt Q9JKC1); experiment: Ellman's method, BuChE from rat serum; type: biochemical
eeAChE = eeAChE (Electrophorus electricus, UniProt O42275); experiment: Ellman's method, electric eel AChE; type: biochemical
eeAChE, sequence (O42275 24-633): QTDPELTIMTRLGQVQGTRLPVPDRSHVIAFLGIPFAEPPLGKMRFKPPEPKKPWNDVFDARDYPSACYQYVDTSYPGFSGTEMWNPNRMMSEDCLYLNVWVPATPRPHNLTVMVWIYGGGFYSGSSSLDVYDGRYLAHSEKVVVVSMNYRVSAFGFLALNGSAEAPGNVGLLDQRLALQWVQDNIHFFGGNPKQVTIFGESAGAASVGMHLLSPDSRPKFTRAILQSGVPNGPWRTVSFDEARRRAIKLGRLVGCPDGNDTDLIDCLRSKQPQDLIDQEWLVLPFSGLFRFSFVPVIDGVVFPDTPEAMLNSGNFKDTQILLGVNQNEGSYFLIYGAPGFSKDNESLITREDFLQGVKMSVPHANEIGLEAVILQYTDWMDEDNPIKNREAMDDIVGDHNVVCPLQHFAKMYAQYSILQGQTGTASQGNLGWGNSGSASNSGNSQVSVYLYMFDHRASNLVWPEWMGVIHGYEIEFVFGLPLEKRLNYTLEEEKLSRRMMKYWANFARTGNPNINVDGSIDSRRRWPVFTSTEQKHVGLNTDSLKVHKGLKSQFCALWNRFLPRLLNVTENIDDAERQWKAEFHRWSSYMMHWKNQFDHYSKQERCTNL

Aβ1–42 [1] = molecular target: T1, Aβ1–42 (Homo sapiens, UniProt P05067); experiment: Inhibition of Cu2+-induced Aβ1–42 aggregation; type: biochemical; details: read-out: Inhibition of Aβ1–42 aggregation (%) Cu^2+-induced
T1 sequence (P05067 672-713): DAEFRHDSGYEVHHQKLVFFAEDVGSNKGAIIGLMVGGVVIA

huMAO-A = molecular target: T2, huMAO-A (Homo sapiens, UniProt P21397); experiment: huMAO-A inhibition, fluorescence method; type: biochemical; details: for inhibition at 10 µM: read-out: MAO-A percent inhibition rate
T2 sequence (P21397 1-527): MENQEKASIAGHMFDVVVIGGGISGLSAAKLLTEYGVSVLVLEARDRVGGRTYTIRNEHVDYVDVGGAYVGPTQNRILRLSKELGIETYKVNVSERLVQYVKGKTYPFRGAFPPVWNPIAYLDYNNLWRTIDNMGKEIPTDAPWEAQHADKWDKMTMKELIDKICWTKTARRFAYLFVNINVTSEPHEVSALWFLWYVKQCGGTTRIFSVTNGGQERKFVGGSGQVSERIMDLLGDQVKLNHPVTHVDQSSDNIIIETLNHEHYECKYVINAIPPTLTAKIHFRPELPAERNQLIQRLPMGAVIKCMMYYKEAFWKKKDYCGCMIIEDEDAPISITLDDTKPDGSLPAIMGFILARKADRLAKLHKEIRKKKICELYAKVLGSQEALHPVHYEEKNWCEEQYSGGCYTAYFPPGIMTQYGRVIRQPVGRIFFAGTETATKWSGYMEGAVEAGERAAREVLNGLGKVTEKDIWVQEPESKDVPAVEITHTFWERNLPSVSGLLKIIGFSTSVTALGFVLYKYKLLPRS

Aβ1–42 [2] = molecular target: T1, Aβ1–42; experiment: Inhibition of self-induced Aβ1–42 aggregation; type: biochemical; details: read-out: Inhibition of Aβ1–42 aggregation (%) Self-induced, 25 μM; ThT assay
Aβ1–42 fibrils [3] = molecular target: T3, Aβ1–42 fibrils (Homo sapiens, UniProt P05067); experiment: Disaggregation of self-induced Aβ1–42 aggregation; type: biochemical; details: 25 μM; ThT assay
T3 sequence (P05067 672-713): as the sequence (P05067 672-713) above

Aβ1–42 fibrils [4] = molecular target: T3, Aβ1–42 fibrils; experiment: Disaggregation of Cu2+-induced Aβ1–42 aggregation; type: biochemical; details: 25 μM; ThT assay
huMAO-B = molecular target: T4, huMAO-B (Homo sapiens, UniProt P27338); experiment: biochemical; details: for inhibition at 10 µM: read-out: MAO-B percent inhibition rate
T4 sequence (P27338 1-520): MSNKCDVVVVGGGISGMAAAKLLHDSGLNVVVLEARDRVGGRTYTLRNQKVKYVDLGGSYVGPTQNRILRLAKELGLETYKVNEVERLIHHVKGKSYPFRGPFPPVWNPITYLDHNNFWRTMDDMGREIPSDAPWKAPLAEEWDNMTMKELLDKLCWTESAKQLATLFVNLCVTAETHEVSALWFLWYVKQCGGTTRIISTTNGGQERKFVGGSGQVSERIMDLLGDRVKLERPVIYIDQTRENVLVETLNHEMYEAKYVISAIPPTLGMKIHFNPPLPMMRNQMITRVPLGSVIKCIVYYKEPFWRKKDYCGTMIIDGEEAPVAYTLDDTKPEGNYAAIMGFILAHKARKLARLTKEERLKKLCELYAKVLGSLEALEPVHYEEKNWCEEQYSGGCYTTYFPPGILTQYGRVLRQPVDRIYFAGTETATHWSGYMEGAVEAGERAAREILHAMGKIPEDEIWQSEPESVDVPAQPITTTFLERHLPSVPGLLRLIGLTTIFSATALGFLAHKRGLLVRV

ratAChE = molecular target: T5, ratAChE (Rattus norvegicus, UniProt P37136); experiment: Ellman's method, AChE from rat cortex homogenate; type: biochemical; details: for SI = Selectivity index = IC50 (BuChE)/IC50 (AChE): ratBuChE over rat AChE
T5 sequence (P37136 32-614): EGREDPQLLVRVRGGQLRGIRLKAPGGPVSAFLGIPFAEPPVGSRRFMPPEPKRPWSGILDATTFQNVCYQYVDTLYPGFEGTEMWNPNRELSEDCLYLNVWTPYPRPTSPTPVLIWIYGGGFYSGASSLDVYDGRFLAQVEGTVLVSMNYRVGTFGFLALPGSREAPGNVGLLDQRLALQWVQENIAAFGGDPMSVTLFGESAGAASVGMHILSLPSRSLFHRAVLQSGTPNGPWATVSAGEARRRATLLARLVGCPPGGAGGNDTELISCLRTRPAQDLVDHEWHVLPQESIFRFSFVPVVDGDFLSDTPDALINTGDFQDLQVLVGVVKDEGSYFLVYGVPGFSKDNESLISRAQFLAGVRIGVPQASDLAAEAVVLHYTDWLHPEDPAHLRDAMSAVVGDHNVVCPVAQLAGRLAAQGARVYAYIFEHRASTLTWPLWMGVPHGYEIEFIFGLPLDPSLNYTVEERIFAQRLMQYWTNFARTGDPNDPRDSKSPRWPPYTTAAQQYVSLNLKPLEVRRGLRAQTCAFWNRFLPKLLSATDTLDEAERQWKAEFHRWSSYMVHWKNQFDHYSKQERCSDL

[5] = Oxygen Radicals Absorbance Capacity by Fluorescence; details: for ORAC: Trolox as reference
[6] = Metal chelation by UV-vis spectrometry and molar ratio method; type: physicochemical; details: 37.5 μM
[7] = peak of compound alone: 9d 362 nm, 17f 350 nm

ratBuChE, sequence (Q9JKC1 24-597): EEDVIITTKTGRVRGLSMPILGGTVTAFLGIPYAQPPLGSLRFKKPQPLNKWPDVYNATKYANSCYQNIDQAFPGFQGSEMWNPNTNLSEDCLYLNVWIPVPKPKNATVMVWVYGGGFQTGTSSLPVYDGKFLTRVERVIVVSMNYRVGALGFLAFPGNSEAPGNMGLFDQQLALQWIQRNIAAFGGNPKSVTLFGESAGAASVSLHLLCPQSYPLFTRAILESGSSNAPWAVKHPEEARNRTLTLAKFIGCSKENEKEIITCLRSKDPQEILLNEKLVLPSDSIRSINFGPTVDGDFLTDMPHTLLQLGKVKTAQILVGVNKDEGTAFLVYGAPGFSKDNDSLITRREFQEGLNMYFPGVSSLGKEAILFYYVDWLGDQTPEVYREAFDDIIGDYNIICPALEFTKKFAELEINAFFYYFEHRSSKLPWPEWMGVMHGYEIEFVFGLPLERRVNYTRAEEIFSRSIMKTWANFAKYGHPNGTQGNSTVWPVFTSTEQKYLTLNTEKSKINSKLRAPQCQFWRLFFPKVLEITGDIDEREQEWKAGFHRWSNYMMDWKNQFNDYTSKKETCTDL

Row | Structure (SMILES) | IC50 (ratBuChE) | IC50 (eeAChE) | inhibition at 25 µM (Aβ1–42 [1]) | IC50 (huMAO-A) | inhibition at 25 µM (Aβ1–42 [2]) | Disaggregation of Aβ1–42 aggregation (%) Self-induced (Aβ1–42 fibrils [3]) | Disaggregation of Aβ1–42 aggregation (%) Cu^2+-induced (Aβ1–42 fibrils [4]) | IC50 (huMAO-B) | SI = selectivity index = IC50 (hMAO-A)/IC50 (hMAO-B) (huMAO-B) | IC50 (ratAChE) | SI = Selectivity index = IC50 (BuChE)/IC50 (AChE) (ratAChE) | ORAC [5] | inhibition at 10 µM (huMAO-A) | inhibition at 10 µM (huMAO-B) | shift of characteristic UV peak after adding FeSO4 and ZnCl2 [6] | characteristic UV peak after adding AlCl3 (red shift) [6, 7] | characteristic UV peak after adding CuCl2 (red shift) [6, 7] | ORAC-FL value ([5]; Trolox equivalents)
1 | COc1ccccc1CN(C)CCCCCCOc1ccc(/C=C/C(=O)c2c(O)cc(OC)c(OC)c2OC)cc1 [Compound 9e, (E)-1-(6-hydroxy-2,3,4-trimethoxyphenyl)-3-(4-(6-((2-methoxybenzyl)(methyl)amino)hexyloxy)phenyl)prop-2-en-1-one] | > 500 µM | 1 ± 0.03 µM | 76.2 ± 0.04% | 37.8 ± 0.57 µM | 65.3 ± 0.02% | 58.2 ± 0.01% | 77.0 ± 0.57% | 2.5 ± 0.01 µM | 15.1 | 1.68 ± 0.01 µM | >297.6 | 0.99 ± 0.02 μM of Trolox equivalent/μM of compounds | – | – | – | – | – | –
2 | CCN(CCCCOc1ccc(/C=C/C(=O)c2c(O)cc(OC)c(O)c2OC)cc1)Cc1ccccc1OC [Compound 17d, (E)-1-(3,6-dihydroxy-2,4-dimethoxyphenyl)-3-(4-(4-(ethyl(2-methoxybenzyl)amino)butoxy)phenyl)prop-2-en-1-one] | 406 ± 15.2 µM | 3.68 ± 0.02 µM | 91.7 ± 0.02% | – | 73.8 ± 0.01% | 45.7 ± 0.16% | 79.8 ± 0.03% | 15.1 ± 0.16 µM | – | 0.58 ± 0.01 µM | 700 | 3.1 ± 0.01 μM of Trolox equivalent/μM of compounds | 16.7% | – | – | – | – | –
3 | CCN(CCCCCCOc1ccc(/C=C/C(=O)c2c(O)cc(OC)c(OC)c2OC)cc1)Cc1ccccc1OC [Compound 9f, (E)-3-(4-(6-(ethyl(2-methoxybenzyl)amino)hexyloxy)phenyl)-1-(6-hydroxy-2,3,4-trimethoxyphenyl)prop-2-en-1-one] | > 500 µM | 1.78 ± 0.02 µM | 75 ± 0.02% | 43.6 ± 0.68 µM | 69 ± 0.01% | 62.8 ± 0.03% | 81.4 ± 0.68% | 7.2 ± 0.03 µM | 6.1 | 0.61 ± 0.01 µM | >819.7 | 0.96 ± 0.01 μM of Trolox equivalent/μM of compounds | – | – | – | – | – | –
4 | COc1ccccc1CN(C)CCCCOc1ccc(/C=C/C(=O)c2c(O)cc(OC)c(O)c2OC)cc1 [Compound 17c, (E)-1-(3,6-dihydroxy-2,4-dimethoxyphenyl)-3-(4-(4-((2-methoxybenzyl)(methyl)amino)butoxy)phenyl)prop-2-en-1-one] | > 500 µM | 3.74 ± 0.03 µM | 92.5 ± 0.03% | 18.3 ± 0.15 µM | 68.4 ± 0.02% | 75.9 ± 0.03% | 79.1 ± 0.15% | – | – | 1.63 ± 0.02 µM | >306.7 | 2.8 ± 0.01 μM of Trolox equivalent/μM of compounds | – | 11% | – | – | – | –
5 | CCN(CCCOc1ccc(/C=C/C(=O)c2c(O)cc(OC)c(OC)c2OC)cc1)Cc1ccccc1OC [Compound 9b, (E)-3-(4-(3-(ethyl(2-methoxybenzyl)amino)propoxy)phenyl)-1-(6-hydroxy-2,3,4-trimethoxyphenyl)prop-2-en-1-one] | > 500 µM | 1.62 ± 0.01 µM | 71.6 ± 0.01% | 19.8 ± 0.22 µM | 63.4 ± 0.03% | 22.2 ± 0.03% | 55.1 ± 0.22% | 8.1 ± 0.03 µM | 2.4 | 0.67 ± 0.01 µM | >746.3 | 0.93 ± 0.01 μM of Trolox equivalent/μM of compounds | – | – | – | – | – | –
6 | CCN(CC)CCCCOc1ccc(/C=C/C(=O)c2c(O)cc(OC)c(OC)c2OC)cc1 [Compound 10, (E)-3-(4-(4-(diethylamino)butoxy)phenyl)-1-(6-hydroxy-2,3,4-trimethoxyphenyl)prop-2-en-1-one] | > 500 µM | 2.72 ± 0.02 µM | 49.4 ± 0.02% | 27.9 ± 0.28 µM | 37.7 ± 0.02% | 25.6 ± 0.03% | 26.2% and 26.2 ± 0.28% | 14.6 ± 0.03 µM | 1.9 | 4.94 ± 0.02 µM | >101.2 | 1.02 ± 0.01 μM of Trolox equivalent/μM of compounds | – | – | – | – | – | –
7 | CCN(CCCOc1ccc(/C=C/C(=O)c2c(O)cc(OC)c(O)c2OC)cc1)Cc1ccccc1OC [Compound 17b, (E)-1-(3,6-dihydroxy-2,4-dimethoxyphenyl)-3-(4-(3-(ethyl(2-methoxybenzyl)amino)propoxy)phenyl)prop-2-en-1-one] | 155 ± 5.8 µM | 3.16 ± 0.02 µM | 90.2 ± 0.02% | – | 82.1 ± 0.01% | 60.2 ± 0.03% | 82.8 ± 0.03% | – | – | 0.73 ± 0.01 µM | 212.3 | 2.9 ± 0.02 μM of Trolox equivalent/μM of compounds | 14.6% | 2.1% | – | – | – | –
8 | COc1ccccc1CN(C)CCCOc1ccc(/C=C/C(=O)c2c(O)cc(OC)c(OC)c2OC)cc1 [Compound 9a, (E)-1-(6-Hydroxy-2,3,4-trimethoxyphenyl)-3-(4-(3-((2-methoxybenzyl)(methyl)amino)propoxy)phenyl)prop-2-en-1-one] | > 500 µM | 1.46 ± 0.02 µM | 66.2 ± 0.02% | – | 57.4 ± 0.01% | 26.8 ± 0.02% | 54.2 ± 0.02% | 3.8 ± 0.02 µM | – | 3.12 ± 0.02 µM | >160.3 | 1.01 ± 0.01 μM of Trolox equivalent/μM of compounds | 13.9% | – | – | – | – | –
9 | CCN(CCCCOc1ccc(/C=C/C(=O)c2c(O)cc(OC)c(OC)c2OC)cc1)Cc1ccccc1OC [Compound 9d, (E)-3-(4-(4-(ethyl(2-methoxybenzyl)amino)butoxy)phenyl)-1-(6-hydroxy-2,3,4-trimethoxyphenyl)prop-2-en-1-one] | 451 ± 1.68 µM | 1.2 ± 0.01 µM | 72.4 ± 0.01% | 38.2 ± 0.63 µM | 72.7 ± 0.02% | 33.0 ± 0.08% | 63.2 ± 0.63% | 12.3 ± 0.08 µM | 3.1 | 0.32 ± 0.02 µM | 1409.4 | 1.01 ± 0.2 μM of Trolox equivalent/μM of compounds | – | – | no obvious shift | 376 nm | 444 nm | 0.96 eq
